Earlier results, collected in PMC5560747, “Computational-experimental approach to drug-target interaction mapping: A case study on kinase inhibitors” (PLoS Computational Biology, 2017).

Key:
Design in all cases: method as in Gao et al. [42]
RPS6KB1 = target: T1, RPS6KB1 (Homo sapiens, UniProt P23443); details: ref Gao et al. [42], cited from earlier work
T1 construct: purchased SignalChem R21-10H-10

MKNK2 (MNK2) = details: ref Gao et al. [42], cited from earlier work
ITK = ITK (Homo sapiens, UniProt Q08881); details: ref Gao et al. [42]; cited from earlier work
FGFR3 = details: ref Gao et al. [42], cited from earlier work
STK17A = details: ref Gao et al. [42], cited from earlier work
TRKB = details: ref Gao et al. [42], cited from earlier work
MELK = details: ref Gao et al. [42], cited from earlier work
PRKX = details: ref Gao et al. [42], cited from earlier work
TSSK2 = details: ref Gao et al. [42], cited from earlier work
GSK3A = details: ref Gao et al. [42], cited from earlier work
TRKA = TRKA (Homo sapiens, UniProt P04629); details: ref Gao et al. [42], cited from earlier work
CDK2 = details: ref Gao et al. [42], cited from earlier work
MAPK9 = details: ref Gao et al. [42], cited from earlier work
IRAK4 = details: ref Gao et al. [42], cited from earlier work
CHUK = details: ref Gao et al. [42], cited from earlier work
RSK2 = details: ref Gao et al. [42], cited from earlier work
PKCg = details: ref Gao et al. [42], cited from earlier work
PRKD2 = details: ref Gao et al. [42], cited from earlier work
CAMK2g = details: ref Gao et al. [42], cited from earlier work
KIT = details: ref Gao et al. [42], cited from earlier work
InsR = InsR (Homo sapiens, UniProt P06213); details: ref Gao et al. [42], cited from earlier work
PHKG2 = details: ref Gao et al. [42], cited from earlier work
CDK5/p25 = details: ref Gao et al. [42], cited from earlier work
ERK6 = details: ref Gao et al. [42], cited from earlier work
PIM3 = details: ref Gao et al. [42], cited from earlier work
MAPK13 = details: ref Gao et al. [42], cited from earlier work
NEK2 = details: ref Gao et al. [42], cited from earlier work
MAP4K2 = details: ref Gao et al. [42], cited from earlier work
AKT3 = details: ref Gao et al. [42], cited from earlier work
CSNK1D = details: ref Gao et al. [42], cited from earlier work

T1 sequence (P23443 whole entry): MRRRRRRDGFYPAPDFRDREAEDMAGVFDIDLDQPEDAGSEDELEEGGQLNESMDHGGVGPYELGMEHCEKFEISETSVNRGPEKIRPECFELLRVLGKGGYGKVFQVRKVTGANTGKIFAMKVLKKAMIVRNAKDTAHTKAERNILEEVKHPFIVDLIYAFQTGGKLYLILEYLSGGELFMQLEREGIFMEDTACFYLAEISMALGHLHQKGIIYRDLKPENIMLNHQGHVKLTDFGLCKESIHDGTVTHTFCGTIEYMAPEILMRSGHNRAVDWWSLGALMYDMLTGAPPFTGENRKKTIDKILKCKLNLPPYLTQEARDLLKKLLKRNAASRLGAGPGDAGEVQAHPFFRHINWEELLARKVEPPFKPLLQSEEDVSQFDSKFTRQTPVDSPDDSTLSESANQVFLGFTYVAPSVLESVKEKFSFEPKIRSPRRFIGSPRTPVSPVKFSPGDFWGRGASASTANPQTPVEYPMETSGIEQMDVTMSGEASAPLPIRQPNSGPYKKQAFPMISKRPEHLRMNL
TRKA, sequence (P04629 33-796): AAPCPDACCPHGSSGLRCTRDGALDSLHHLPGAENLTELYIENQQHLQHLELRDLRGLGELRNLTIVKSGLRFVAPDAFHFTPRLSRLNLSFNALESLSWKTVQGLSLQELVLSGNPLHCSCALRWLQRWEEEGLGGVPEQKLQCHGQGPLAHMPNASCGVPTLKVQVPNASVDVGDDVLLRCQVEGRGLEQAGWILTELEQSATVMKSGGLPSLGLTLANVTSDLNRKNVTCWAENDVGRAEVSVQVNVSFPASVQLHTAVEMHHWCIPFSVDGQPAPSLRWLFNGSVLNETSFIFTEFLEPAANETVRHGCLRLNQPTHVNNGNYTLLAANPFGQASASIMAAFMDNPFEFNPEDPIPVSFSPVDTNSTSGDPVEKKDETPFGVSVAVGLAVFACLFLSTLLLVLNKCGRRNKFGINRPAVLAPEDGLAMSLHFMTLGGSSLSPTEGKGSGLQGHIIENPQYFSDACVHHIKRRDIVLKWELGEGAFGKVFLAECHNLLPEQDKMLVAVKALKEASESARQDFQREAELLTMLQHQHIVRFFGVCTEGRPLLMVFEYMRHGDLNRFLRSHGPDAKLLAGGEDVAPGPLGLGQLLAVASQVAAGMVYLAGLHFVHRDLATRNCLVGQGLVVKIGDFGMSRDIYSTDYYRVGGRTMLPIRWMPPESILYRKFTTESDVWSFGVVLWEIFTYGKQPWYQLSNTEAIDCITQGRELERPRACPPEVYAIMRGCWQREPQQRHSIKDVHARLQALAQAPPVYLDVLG
InsR, sequence (P06213 28-1382): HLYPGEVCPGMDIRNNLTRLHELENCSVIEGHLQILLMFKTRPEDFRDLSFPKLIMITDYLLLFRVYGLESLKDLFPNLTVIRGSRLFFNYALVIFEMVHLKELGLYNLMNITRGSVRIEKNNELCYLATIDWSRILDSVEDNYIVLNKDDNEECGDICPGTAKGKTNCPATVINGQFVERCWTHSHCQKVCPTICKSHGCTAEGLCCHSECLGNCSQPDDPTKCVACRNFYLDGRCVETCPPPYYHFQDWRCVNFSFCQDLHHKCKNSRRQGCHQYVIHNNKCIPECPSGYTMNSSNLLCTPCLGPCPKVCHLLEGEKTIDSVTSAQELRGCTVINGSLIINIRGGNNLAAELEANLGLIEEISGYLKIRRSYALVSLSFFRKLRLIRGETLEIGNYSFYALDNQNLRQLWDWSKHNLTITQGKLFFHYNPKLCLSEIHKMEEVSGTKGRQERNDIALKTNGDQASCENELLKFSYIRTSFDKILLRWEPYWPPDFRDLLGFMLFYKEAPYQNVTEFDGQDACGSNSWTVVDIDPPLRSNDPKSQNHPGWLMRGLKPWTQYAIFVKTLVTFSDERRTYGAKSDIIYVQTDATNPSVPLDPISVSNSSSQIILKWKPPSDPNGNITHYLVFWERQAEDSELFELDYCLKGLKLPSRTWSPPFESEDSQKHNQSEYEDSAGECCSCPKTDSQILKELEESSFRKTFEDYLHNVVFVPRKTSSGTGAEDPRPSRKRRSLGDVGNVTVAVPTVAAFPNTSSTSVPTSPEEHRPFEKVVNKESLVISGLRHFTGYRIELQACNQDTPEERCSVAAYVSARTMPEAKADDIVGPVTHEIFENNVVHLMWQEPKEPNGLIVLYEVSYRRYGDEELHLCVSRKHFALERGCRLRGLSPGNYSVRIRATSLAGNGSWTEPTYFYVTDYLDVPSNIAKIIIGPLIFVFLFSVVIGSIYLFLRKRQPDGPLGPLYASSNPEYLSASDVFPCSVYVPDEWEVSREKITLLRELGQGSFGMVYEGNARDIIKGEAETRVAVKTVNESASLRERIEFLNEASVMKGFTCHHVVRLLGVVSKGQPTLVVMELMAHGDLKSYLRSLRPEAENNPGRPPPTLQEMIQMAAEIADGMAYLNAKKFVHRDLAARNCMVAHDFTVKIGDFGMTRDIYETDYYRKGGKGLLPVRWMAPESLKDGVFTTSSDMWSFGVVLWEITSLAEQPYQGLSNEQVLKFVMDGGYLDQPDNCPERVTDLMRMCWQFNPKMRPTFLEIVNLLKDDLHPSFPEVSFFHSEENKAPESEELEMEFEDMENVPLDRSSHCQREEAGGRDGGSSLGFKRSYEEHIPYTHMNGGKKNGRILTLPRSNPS
ITK, sequence (Q08881 whole entry): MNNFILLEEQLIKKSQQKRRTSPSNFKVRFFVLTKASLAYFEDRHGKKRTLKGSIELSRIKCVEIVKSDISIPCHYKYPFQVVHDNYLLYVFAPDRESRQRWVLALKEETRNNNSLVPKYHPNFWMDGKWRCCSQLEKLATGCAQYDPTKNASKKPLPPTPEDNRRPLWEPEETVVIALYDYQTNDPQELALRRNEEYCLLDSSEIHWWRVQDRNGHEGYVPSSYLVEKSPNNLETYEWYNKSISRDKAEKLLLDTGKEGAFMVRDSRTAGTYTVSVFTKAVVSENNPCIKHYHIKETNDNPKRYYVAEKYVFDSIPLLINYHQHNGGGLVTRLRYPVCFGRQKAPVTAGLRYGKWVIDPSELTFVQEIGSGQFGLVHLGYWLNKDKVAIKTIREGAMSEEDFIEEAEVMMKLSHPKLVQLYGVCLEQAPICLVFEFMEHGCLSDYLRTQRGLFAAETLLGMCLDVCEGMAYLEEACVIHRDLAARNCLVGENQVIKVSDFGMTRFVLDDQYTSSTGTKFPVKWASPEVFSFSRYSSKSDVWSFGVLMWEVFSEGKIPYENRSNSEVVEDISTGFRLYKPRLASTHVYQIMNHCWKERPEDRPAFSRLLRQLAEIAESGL

COc1cc2nccc(Oc3ccc(NC(=O)Nc4cc(C)on4)c(Cl)c3)c2cc1OC [TIVOZANIB, Tivozanib]
Gao et al. % of activity remaining at 1 µM (RPS6KB1; 1 µM): 76%
Gao et al. % of activity remaining at 10 µM (RPS6KB1; 10 µM): 53%
Gao et al. % of activity remaining at 1 µM (MKNK2 (MNK2); 1 µM): 105%
Gao et al. % of activity remaining at 10 µM (MKNK2 (MNK2); 10 µM): 64%
Gao et al. % of activity remaining at 10 µM (ITK): 51%
Gao et al. % of activity remaining at 1 µM (FGFR3; 1 µM): 59%
Gao et al. % of activity remaining at 10 µM (FGFR3; 10 µM): 28%
Gao et al. % of activity remaining at 1 µM (STK17A; 1 µM): 116%
Gao et al. % of activity remaining at 10 µM (STK17A; 10 µM): 87%
Gao et al. % of activity remaining at 1 µM (TRKB; 1 µM): 42%
Gao et al. % of activity remaining at 10 µM (TRKB; 10 µM): -10%
Gao et al. % of activity remaining at 1 µM (MELK; 1 µM): 91%
Gao et al. % of activity remaining at 10 µM (MELK; 10 µM): 80%
Gao et al. % of activity remaining at 1 µM (PRKX; 1 µM): 97%
Gao et al. % of activity remaining at 10 µM (PRKX; 10 µM): 59%
Gao et al. % of activity remaining at 1 µM (TSSK2; 1 µM): 90%
Gao et al. % of activity remaining at 10 µM (TSSK2; 10 µM): 78%
Gao et al. % of activity remaining at 1 µM (GSK3A; 1 µM): 107%
Gao et al. % of activity remaining at 10 µM (GSK3A; 10 µM): 123%
Gao et al. % of activity remaining at 1 µM (TRKA; 1 µM): 2%
Gao et al. % of activity remaining at 10 µM (TRKA; 10 µM): 0%
Gao et al. % of activity remaining at 1 µM (CDK2; 1 µM): 98%
Gao et al. % of activity remaining at 10 µM (CDK2; 10 µM): 86%
Gao et al. % of activity remaining at 1 µM (MAPK9; 1 µM): 104%
Gao et al. % of activity remaining at 10 µM (MAPK9; 10 µM): 88%
Gao et al. % of activity remaining at 1 µM (IRAK4; 1 µM): 85%
Gao et al. % of activity remaining at 10 µM (IRAK4; 10 µM): 47%
Gao et al. % of activity remaining at 1 µM (CHUK; 1 µM): 91%
Gao et al. % of activity remaining at 10 µM (CHUK; 10 µM): 114%
Gao et al. % of activity remaining at 1 µM (RSK2; 1 µM): 60%
Gao et al. % of activity remaining at 10 µM (RSK2; 10 µM): 35%
Gao et al. % of activity remaining at 1 µM (PKCg; 1 µM): 109%
Gao et al. % of activity remaining at 10 µM (PKCg; 10 µM): 110%
Gao et al. % of activity remaining at 1 µM (PRKD2; 1 µM): 95%
Gao et al. % of activity remaining at 10 µM (PRKD2; 10 µM): 103%
Gao et al. % of activity remaining at 1 µM (CAMK2g; 1 µM): 108%
Gao et al. % of activity remaining at 10 µM (CAMK2g; 10 µM): 70%
Gao et al. % of activity remaining at 1 µM (KIT; 1 µM): 3%
Gao et al. % of activity remaining at 10 µM (KIT; 10 µM): 0%
Gao et al. % of activity remaining at 1 µM (InsR; 1 µM): 102%
Gao et al. % of activity remaining at 10 µM (InsR; 10 µM): 29%
Gao et al. % of activity remaining at 1 µM (PHKG2; 1 µM): 95%
Gao et al. % of activity remaining at 10 µM (PHKG2; 10 µM): 66%
Gao et al. % of activity remaining at 1 µM (CDK5/p25; 1 µM): 90%
Gao et al. % of activity remaining at 10 µM (CDK5/p25; 10 µM): 95%
Gao et al. % of activity remaining at 1 µM (ERK6; 1 µM): 100%
Gao et al. % of activity remaining at 10 µM (ERK6; 10 µM): 94%
Gao et al. % of activity remaining at 1 µM (PIM3; 1 µM): 107%
Gao et al. % of activity remaining at 10 µM (PIM3; 10 µM): 105%
Gao et al. % of activity remaining at 1 µM (MAPK13; 1 µM): 114%
Gao et al. % of activity remaining at 10 µM (MAPK13; 10 µM): 97%
Gao et al. % of activity remaining at 1 µM (NEK2; 1 µM): 88%
Gao et al. % of activity remaining at 10 µM (NEK2; 10 µM): 100%
Gao et al. % of activity remaining at 1 µM (MAP4K2; 1 µM): 47%
Gao et al. % of activity remaining at 10 µM (MAP4K2; 10 µM): 17%
Gao et al. % of activity remaining at 1 µM (AKT3; 1 µM): 95%
Gao et al. % of activity remaining at 10 µM (AKT3; 10 µM): 89%
Gao et al. % of activity remaining at 1 µM (CSNK1D; 1 µM): 85%
Gao et al. % of activity remaining at 10 µM (CSNK1D; 10 µM): 61%
